{"source": "ChEMBL document CHEMBL1201862", "about": "“PubChem BioAssay data set” (2004)", "test_in_all_cases": "NCI tumour cell line growth inhibition, 48 h", "key": {"[1]": {"system": "NCI-H522"}, "[2]": {"system": "HL-60"}, "[3]": {"system": "TK-10"}, "[4]": {"system": "SK-MEL-5"}, "[5]": {"system": "U-251"}, "[6]": {"system": "COLO 205"}, "[7]": {"system": "SNB-19"}, "[8]": {"system": "ACHN"}, "[9]": {"system": "SF-295"}, "[10]": {"system": "MOLT-4"}, "[11]": {"system": "NCI-H226"}, "[12]": {"system": "HOP-62"}, "[13]": {"system": "T47D"}, "[14]": {"system": "A549"}, "[15]": {"system": "MCF7"}, "[16]": {"system": "HCC 2998"}, "[17]": {"system": "OVCAR-3"}, "[18]": {"system": "KM12"}, "[19]": {"system": "SNB-75"}, "[20]": {"system": "SF-539"}, "[21]": {"system": "OVCAR-4"}, "[22]": {"system": "MDA-MB-435"}, "[23]": {"system": "HCT-15"}, "[24]": {"system": "SK-MEL-2"}, "[25]": {"system": "UO-31"}, "[26]": {"system": "DU-145"}, "[27]": {"system": "RPMI-8226"}, "[28]": {"system": "OVCAR-5"}, "[29]": {"system": "UACC-62"}, "[30]": {"system": "EKVX"}, "[31]": {"system": "SF-268"}, "[32]": {"system": "NCI/ADR-RES"}, "[33]": {"system": "Hs-578T"}, "[34]": {"system": "NCI-H23"}, "[35]": {"system": "786-0"}, "[36]": {"system": "A498"}, "[37]": {"system": "SR"}, "[38]": {"system": "PC-3"}, "[39]": {"system": "SW-620"}, "[40]": {"system": "SK-OV-3"}, "[41]": {"system": "Malme-3M"}, "[42]": {"system": "K562"}, "[43]": {"system": "SK-MEL-28"}, "[44]": {"system": "LOX IMVI"}, "[45]": {"system": "NCI-H460"}, "[46]": {"system": "BT-549"}, "[47]": {"system": "MDA-MB-231"}, "[48]": {"system": "CCRF-CEM"}, "[49]": {"system": "IGROV-1"}, "[50]": {"system": "M14"}, "[51]": {"system": "SN12C"}, "[52]": {"system": "HT-29"}, "[53]": {"system": "OVCAR-8"}, "[54]": {"system": "RXF 393"}, "[55]": {"system": "MDA-N"}, "[56]": {"system": "HCT-116"}, "[57]": {"system": "CAKI-1"}, "[58]": {"system": "UACC-257"}, "[59]": {"system": "HOP-92"}}, "note": "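Protocol summary: plate cells (96-well), add compound at 5 concentrations, incubate 48 h, interpolate endpoints linearly. Abbreviation: GI50, concentration required for 50% inhibition of growth.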 Active and inactive are the calls of the source. Cut-off read from the data, not from the text of the source: active = GI50 up to about 1.1 µM and inactive = higher."}
{"molecule": "CN(C)CCNc1c([N+](=O)[O-])sc2ccc(Cl)cc12", "values": [{"measurement": "GI50", "setting": "[1]", "value": "10.8 µM (inactive)"}, {"measurement": "GI50", "setting": "[2]", "value": "> 100 µM (inactive)"}, {"measurement": "GI50", "setting": "[3]", "value": "91 µM (inactive)"}, {"measurement": "GI50", "setting": "[4]", "value": "26.2 µM (inactive)"}, {"measurement": "GI50", "setting": "[5]", "value": "18.3 µM (inactive)"}, {"measurement": "GI50", "setting": "[6]", "value": "8.75 µM (inactive)"}, {"measurement": "GI50", "setting": "[7]", "value": "26.2 µM (inactive)"}, {"measurement": "GI50", "setting": "[8]", "value": "6.01 µM (inactive)"}, {"measurement": "GI50", "setting": "[9]", "value": "17.6 µM (inactive)"}, {"measurement": "GI50", "setting": "[10]", "value": "2.37 µM (inactive)"}, {"measurement": "GI50", "setting": "[11]", "value": "15.8 µM (inactive)"}, {"measurement": "GI50", "setting": "[12]", "value": "12.2 µM (inactive)"}, {"measurement": "GI50", "setting": "[13]", "value": "23.6 µM (inactive)"}, {"measurement": "GI50", "setting": "[14]", "value": "11.9 µM (inactive)"}, {"measurement": "GI50", "setting": "[15]", "value": "7.36 µM (inactive)"}, {"measurement": "GI50", "setting": "[16]", "value": "15.7 µM (inactive)"}, {"measurement": "GI50", "setting": "[17]", "value": "> 100 µM (inactive)"}, {"measurement": "GI50", "setting": "[18]", "value": "> 100 µM (inactive)"}, {"measurement": "GI50", "setting": "[19]", "value": "14.5 µM (inactive)"}, {"measurement": "GI50", "setting": "[20]", "value": "14 µM (inactive)"}, {"measurement": "GI50", "setting": "[21]", "value": "12.6 µM (inactive)"}, {"measurement": "GI50", "setting": "[22]", "value": "88.5 µM (inactive)"}, {"measurement": "GI50", "setting": "[23]", "value": 7.76, "unit": "µM"}, {"measurement": "GI50", "setting": "[24]", "value": "33.5 µM (inactive)"}, {"measurement": "GI50", "setting": "[25]", "value": "20 µM (inactive)"}, {"measurement": "GI50", "setting": "[26]", "value": "80.4 µM (inactive)"}, {"measurement": "GI50", "setting": "[27]", "value": "> 100 µM (inactive)"}, {"measurement": "GI50", "setting": "[28]", "value": "> 100 µM (inactive)"}, {"measurement": "GI50", "setting": "[29]", "value": "14 µM (inactive)"}, {"measurement": "GI50", "setting": "[30]", "value": "44.7 µM (inactive)"}, {"measurement": "GI50", "setting": "[31]", "value": "18.3 µM (inactive)"}, {"measurement": "GI50", "setting": "[32]", "value": "11.1 µM (inactive)"}, {"measurement": "GI50", "setting": "[33]", "value": "21.3 µM (inactive)"}, {"measurement": "GI50", "setting": "[34]", "value": "23.2 µM (inactive)"}, {"measurement": "GI50", "setting": "[35]", "value": "12.2 µM (inactive)"}, {"measurement": "GI50", "setting": "[36]", "value": "23.3 µM (inactive)"}, {"measurement": "GI50", "setting": "[37]", "value": "> 100 µM (inactive)"}, {"measurement": "GI50", "setting": "[38]", "value": "13.4 µM (inactive)"}, {"measurement": "GI50", "setting": "[39]", "value": "3.77 µM (inactive)"}, {"measurement": "GI50", "setting": "[40]", "value": "25.5 µM (inactive)"}, {"measurement": "GI50", "setting": "[41]", "value": "26.9 µM (inactive)"}, {"measurement": "GI50", "setting": "[42]", "value": "7.52 µM (inactive)"}, {"measurement": "GI50", "setting": "[43]", "value": "> 100 µM (inactive)"}, {"measurement": "GI50", "setting": "[44]", "value": "3.49 µM (inactive)"}, {"measurement": "GI50", "setting": "[45]", "value": "5.38 µM (inactive)"}, {"measurement": "GI50", "setting": "[46]", "value": "32.3 µM (inactive)"}, {"measurement": "GI50", "setting": "[47]", "value": "17.3 µM (inactive)"}, {"measurement": "GI50", "setting": "[48]", "value": "4.36 µM (inactive)"}, {"measurement": "GI50", "setting": "[49]", "value": "26.1 µM (inactive)"}, {"measurement": "GI50", "setting": "[50]", "value": "> 100 µM (inactive)"}, {"measurement": "GI50", "setting": "[51]", "value": "7.66 µM (inactive)"}, {"measurement": "GI50", "setting": "[52]", "value": "5.89 µM (inactive)"}, {"measurement": "GI50", "setting": "[53]", "value": "17.3 µM (inactive)"}, {"measurement": "GI50", "setting": "[54]", "value": "19.1 µM (inactive)"}]}
{"molecule": "CC(C)=C1C(=O)c2c(Cl)sc(Cl)c2C1=O", "values": [{"measurement": "GI50", "setting": "[1]", "value": "16.4 µM (inactive)"}, {"measurement": "GI50", "setting": "[2]", "value": "31.3 µM (inactive)"}, {"measurement": "GI50", "setting": "[3]", "value": "32.5 µM (inactive)"}, {"measurement": "GI50", "setting": "[4]", "value": "93.3 µM (inactive)"}, {"measurement": "GI50", "setting": "[5]", "value": "22.2 µM (inactive)"}, {"measurement": "GI50", "setting": "[6]", "value": "20.9 µM (inactive)"}, {"measurement": "GI50", "setting": "[8]", "value": "21 µM (inactive)"}, {"measurement": "GI50", "setting": "[55]", "value": "22.6 µM (inactive)"}, {"measurement": "GI50", "setting": "[56]", "value": "17.2 µM (inactive)"}, {"measurement": "GI50", "setting": "[9]", "value": "39.5 µM (inactive)"}, {"measurement": "GI50", "setting": "[10]", "value": "36.6 µM (inactive)"}, {"measurement": "GI50", "setting": "[11]", "value": "35.6 µM (inactive)"}, {"measurement": "GI50", "setting": "[12]", "value": "42.4 µM (inactive)"}, {"measurement": "GI50", "setting": "[13]", "value": "31 µM (inactive)"}, {"measurement": "GI50", "setting": "[14]", "value": "26.1 µM (inactive)"}, {"measurement": "GI50", "setting": "[15]", "value": "41.2 µM (inactive)"}, {"measurement": "GI50", "setting": "[17]", "value": "29.3 µM (inactive)"}, {"measurement": "GI50", "setting": "[18]", "value": "16.5 µM (inactive)"}, {"measurement": "GI50", "setting": "[19]", "value": "18.4 µM (inactive)"}, {"measurement": "GI50", "setting": "[20]", "value": "22.3 µM (inactive)"}, {"measurement": "GI50", "setting": "[21]", "value": "14.5 µM (inactive)"}, {"measurement": "GI50", "setting": "[22]", "value": "18.6 µM (inactive)"}, {"measurement": "GI50", "setting": "[23]", "value": 20.7, "unit": "µM"}, {"measurement": "GI50", "setting": "[24]", "value": "20 µM (inactive)"}, {"measurement": "GI50", "setting": "[25]", "value": "23.4 µM (inactive)"}, {"measurement": "GI50", "setting": "[26]", "value": "22.4 µM (inactive)"}, {"measurement": "GI50", "setting": "[28]", "value": "> 100 µM (inactive)"}, {"measurement": "GI50", "setting": "[29]", "value": "19.9 µM (inactive)"}, {"measurement": "GI50", "setting": "[30]", "value": "27.7 µM (inactive)"}, {"measurement": "GI50", "setting": "[31]", "value": "30.2 µM (inactive)"}, {"measurement": "GI50", "setting": "[32]", "value": "24 µM (inactive)"}, {"measurement": "GI50", "setting": "[57]", "value": "18.3 µM (inactive)"}, {"measurement": "GI50", "setting": "[33]", "value": "32.8 µM (inactive)"}, {"measurement": "GI50", "setting": "[34]", "value": "17.8 µM (inactive)"}, {"measurement": "GI50", "setting": "[35]", "value": "22.9 µM (inactive)"}, {"measurement": "GI50", "setting": "[36]", "value": "> 100 µM (inactive)"}, {"measurement": "GI50", "setting": "[37]", "value": "27.2 µM (inactive)"}, {"measurement": "GI50", "setting": "[39]", "value": "28.7 µM (inactive)"}, {"measurement": "GI50", "setting": "[40]", "value": "> 100 µM (inactive)"}, {"measurement": "GI50", "setting": "[41]", "value": "19 µM (inactive)"}, {"measurement": "GI50", "setting": "[42]", "value": "37.6 µM (inactive)"}, {"measurement": "GI50", "setting": "[43]", "value": "21.7 µM (inactive)"}, {"measurement": "GI50", "setting": "[44]", "value": "18.2 µM (inactive)"}, {"measurement": "GI50", "setting": "[45]", "value": "> 100 µM (inactive)"}, {"measurement": "GI50", "setting": "[46]", "value": "22 µM (inactive)"}, {"measurement": "GI50", "setting": "[47]", "value": "27.6 µM (inactive)"}, {"measurement": "GI50", "setting": "[58]", "value": "21.3 µM (inactive)"}, {"measurement": "GI50", "setting": "[48]", "value": "26.1 µM (inactive)"}, {"measurement": "GI50", "setting": "[49]", "value": "21.9 µM (inactive)"}, {"measurement": "GI50", "setting": "[50]", "value": "19 µM (inactive)"}, {"measurement": "GI50", "setting": "[51]", "value": "20.7 µM (inactive)"}, {"measurement": "GI50", "setting": "[52]", "value": "28.8 µM (inactive)"}, {"measurement": "GI50", "setting": "[59]", "value": "22.6 µM (inactive)"}, {"measurement": "GI50", "setting": "[53]", "value": "19.7 µM (inactive)"}]}
